In the NIST ThermoML archive (doi:10.1021/je800152d):
Numbers after ± are expanded uncertainties.

Test: cn = amount concentration of the nth substance listed, in mol/dm3
Conditions: 298.15 K, 101 kPa, Liquid, Direct current cell with electrodes

CCCCCCCCn1cc[n+](C)c1.O=S(=O)([N-]S(=O)(=O)C(F)(F)F)C(F)(F)F + ClCCl
Conditions | molar conductivity [S·m2/mol]
c1 = 1.807e-05 | 0.005919 ± 2.4e-05
c1 = 4.306e-05 | 0.004426 ± 1.8e-05
c1 = 7.895e-05 | 0.003536 ± 1.4e-05
c1 = 0.0001156 | 0.003048 ± 1.2e-05
c1 = 0.0001516 | 0.002738 ± 1.1e-05
c1 = 0.0001934 | 0.002482 ± 9.9e-06
c1 = 0.0002361 | 0.002291 ± 9.2e-06
c1 = 0.0002758 | 0.002153 ± 8.6e-06
c1 = 0.000322 | 0.002022 ± 8.1e-06
c1 = 0.000369 | 0.001913 ± 7.7e-06

CCCCCC[n+]1ccn(C)c1.O=S(=O)([N-]S(=O)(=O)C(F)(F)F)C(F)(F)F + ClCCl
Conditions | molar conductivity [S·m2/mol]
c1 = 3.872e-05 | 0.004826 ± 1.9e-05
c1 = 7.796e-05 | 0.003727 ± 1.5e-05
c1 = 0.0001134 | 0.003224 ± 1.3e-05
c1 = 0.0001471 | 0.002907 ± 1.2e-05
c1 = 0.0001812 | 0.002674 ± 1.1e-05
c1 = 0.000212 | 0.00251 ± 1e-05
c1 = 0.0002454 | 0.002365 ± 9.5e-06
c1 = 0.0002746 | 0.002261 ± 9e-06
c1 = 0.0003046 | 0.002169 ± 8.7e-06
c1 = 0.0003313 | 0.002097 ± 8.4e-06

CCCC[n+]1ccn(C)c1.O=S(=O)([N-]S(=O)(=O)C(F)(F)F)C(F)(F)F + ClCCl
Conditions | molar conductivity [S·m2/mol]
c1 = 3.993e-05 | 0.005031 ± 2e-05
c1 = 7.416e-05 | 0.004 ± 1.6e-05
c1 = 0.0001094 | 0.00344 ± 1.4e-05
c1 = 0.0001439 | 0.003085 ± 1.2e-05
c1 = 0.0001819 | 0.002807 ± 1.1e-05
c1 = 0.0002096 | 0.002651 ± 1.1e-05
c1 = 0.0002378 | 0.002519 ± 1e-05
c1 = 0.0002686 | 0.002394 ± 9.6e-06
c1 = 0.000298 | 0.002296 ± 9.2e-06
c1 = 0.0003273 | 0.002211 ± 8.9e-06

CCCCn1cc[n+](C)c1C.O=S(=O)([N-]S(=O)(=O)C(F)(F)F)C(F)(F)F + ClCCl
Conditions | molar conductivity [S·m2/mol]
c1 = 1.989e-05 | 0.008834 ± 3.5e-05
c1 = 6.027e-05 | 0.006684 ± 2.7e-05
c1 = 9.148e-05 | 0.005885 ± 2.4e-05
c1 = 0.000124 | 0.005336 ± 2.1e-05
c1 = 0.0001564 | 0.004935 ± 2e-05
c1 = 0.0001888 | 0.004628 ± 1.8e-05
c1 = 0.0002366 | 0.004278 ± 1.7e-05
c1 = 0.0002859 | 0.004001 ± 1.6e-05
c1 = 0.0003299 | 0.003802 ± 1.5e-05
c1 = 0.0003742 | 0.003634 ± 1.5e-05

CCCCn1cc[n+](C)c1C.F[P-](F)(F)(F)(F)F [1-butyl-2,3-dimethylimidazolium hexafluorophosphate] + ClCCl
Conditions | molar conductivity [S·m2/mol]
c1 = 4.824e-05 | 0.006815 ± 2.7e-05
c1 = 9.247e-05 | 0.00553 ± 2.2e-05
c1 = 0.0001694 | 0.004468 ± 1.8e-05
c1 = 0.0002351 | 0.003966 ± 1.6e-05
c1 = 0.0003147 | 0.003557 ± 1.4e-05
c1 = 0.0003984 | 0.003254 ± 1.3e-05
c1 = 0.0004826 | 0.003028 ± 1.2e-05
c1 = 0.0005864 | 0.002809 ± 1.1e-05
c1 = 0.0007039 | 0.002623 ± 1e-05
c1 = 0.0008092 | 0.002481 ± 9.9e-06

CCCCn1cc[n+](C)c1C.F[B-](F)(F)F [1-butyl-2,3-dimethylimidazolium tetrafluoroborate] + ClCCl
Conditions | molar conductivity [S·m2/mol]
c1 = 4.614e-05 | 0.006049 ± 2.4e-05
c1 = 9.614e-05 | 0.0047 ± 1.9e-05
c1 = 0.0001552 | 0.003942 ± 1.6e-05
c1 = 0.0002185 | 0.003459 ± 1.4e-05
c1 = 0.0002763 | 0.003161 ± 1.3e-05
c1 = 0.0003472 | 0.002891 ± 1.2e-05
c1 = 0.0004196 | 0.002684 ± 1.1e-05
c1 = 0.0005021 | 0.002502 ± 1e-05
c1 = 0.0005985 | 0.002336 ± 9.4e-06
c1 = 0.0006827 | 0.00222 ± 8.9e-06

CCCCn1cc[n+](C)c1.F[P-](F)(F)(F)(F)F [1-butyl-3-methylimidazolium hexafluorophosphate] + ClCCl
Conditions | molar conductivity [S·m2/mol]
c1 = 6.999e-05 | 0.003807 ± 1.5e-05
c1 = 0.0001329 | 0.002948 ± 1.2e-05
c1 = 0.0001743 | 0.002637 ± 1.1e-05
c1 = 0.0002133 | 0.002425 ± 9.7e-06
c1 = 0.0002543 | 0.002259 ± 9e-06
c1 = 0.0003123 | 0.002073 ± 8.3e-06
c1 = 0.0003665 | 0.001941 ± 7.8e-06
c1 = 0.0004379 | 0.001804 ± 7.2e-06
c1 = 0.0005447 | 0.001647 ± 6.6e-06
c1 = 0.0006393 | 0.001541 ± 6.2e-06

CCCCn1cc[n+](C)c1.F[B-](F)(F)F [1-butyl-3-methylimidazolium tetrafluoroborate] + ClCCl
Conditions | molar conductivity [S·m2/mol]
c1 = 4.455e-05 | 0.003701 ± 1.5e-05
c1 = 0.0001304 | 0.002353 ± 9.4e-06
c1 = 0.0002072 | 0.001927 ± 7.7e-06
c1 = 0.0002805 | 0.001689 ± 6.8e-06
c1 = 0.0003592 | 0.00152 ± 6.1e-06
c1 = 0.0004262 | 0.001412 ± 5.7e-06
c1 = 0.0005183 | 0.001299 ± 5.2e-06
c1 = 0.000625 | 0.0012 ± 4.8e-06
c1 = 0.0007268 | 0.001127 ± 4.5e-06
c1 = 0.0008458 | 0.001058 ± 4.2e-06
